Results reported in PubChem BioAssay (NCI).
Where “and” joins values, the source holds several entries; their conditions need not be identical. Equal entries are not always repeated.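 Test compounds were applied to cells in 96-well plates for 48 hours at 5 doses. GI50 marks 50% less growth. At the TGI there is no net growth.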

What was measured:
Experiment in all cases: inhibition of tumour cell growth, NCI panel, 48 h
[1] = tested on: MDA-MB-231 breast
[2] = tested on: EKVX NSCLC
[3] = tested on: UACC-257 melanoma
[4] = tested on: OVCAR-3 ovarian
[5] = tested on: MDA-MB-435
[6] = tested on: HCC-2998 colon
[7] = tested on: SK-MEL-28 melanoma
[8] = tested on: DU-145 prostate
[9] = tested on: HL-60(TB) leukemia
[10] = tested on: MCF7 breast

`N#CCC1(n2cc(-c3ncnc4[nH]ccc34)cn2)CN(C2CCN(C(=O)c3ccnc(C(F)(F)F)c3F)CC2)C1` was tested, and the GI50 [1] was 46.6 µM, the TGI [1] was > 100 µM and the GI50 [2] was > 100 µM. The TGI [2] was > 100 µM, the GI50 [3] was > 100 µM and the TGI [3] was > 100 µM. For the same molecule, the GI50 [4] was > 100 µM, the TGI [4] was > 100 µM and the GI50 [5] was 92.1 µM. The TGI [5] was > 100 µM, the GI50 [6] was > 100 µM and the TGI [6] was > 100 µM. For the same molecule, the GI50 [7] was > 100 µM, the TGI [7] was > 100 µM and the GI50 [8] was > 100 µM. For the same molecule, the TGI [8] was > 100 µM, the GI50 [9] was > 100 µM and the TGI [9] was > 100 µM.

With `CC(=O)[O-].[Mn+3].[O-]c1ccc(Cl)cc1C=NCCN=Cc1cc(Cl)ccc1[O-]` the GI50 [3] was > 100 µM, the TGI [3] was > 100 µM and the GI50 [4] was 37.6 µM. The TGI [4] was > 100 µM, the GI50 [6] was 66.3 µM and the TGI [6] was > 100 µM. The GI50 [7] was > 100 µM, the TGI [7] was > 100 µM and the GI50 [9] was 50.7 µM. The TGI [9] was > 100 µM.

With `C[C@]12CCC3=NCCN3C1=CC[C@@H]1[C@@H]2CC[C@@]2(C)[C@H]1CC[C@]2(C)O` the TGI [1] was > 100 µM, the TGI [10] was > 100 µM and the TGI [2] was > 100 µM. For the same molecule, the TGI [3] was 73.1 µM, the TGI [4] was > 100 µM and the TGI [5] was > 100 µM. The TGI [7] was 99.6 µM and the TGI [8] was > 100 µM.

`COc1ccc(C(=O)O/N=C2/CCCCC2CN(C)C)cc1` (configuration not stated) was tested, and the TGI [2] was > 100 µM, the TGI [3] was > 100 µM and the TGI [4] was > 100 µM. The TGI [6] was > 100 µM, the TGI [7] was > 100 µM and the TGI [9] was > 100 µM.

`Cn1ccnc1C(=O)/C=C/c1ccc(C(=O)Nc2c(F)c(F)c(F)c(F)c2F)cc1` gave a GI50 [1] of 2.27 µM, a TGI [1] of 6.7 µM and a GI50 [2] of 2.36 µM. For the same molecule, the TGI [2] was 5.85 µM, the GI50 [3] was 3.1 µM and the TGI [3] was 10.4 µM. The GI50 [4] was 1.4 µM, the TGI [4] was 2.74 µM and the GI50 [5] was 2.02 µM. It also gave a TGI [5] of 4.68 µM, a GI50 [6] of 1.64 µM and a TGI [6] of 3.14 µM. The GI50 [7] was 2.17 µM, the TGI [7] was 5.19 µM and the GI50 [8] was 1.64 µM. The TGI [8] was 3.11 µM, the GI50 [9] was 1.8 µM and the TGI [9] was 4.74 µM.

In the case of `Cc1ccc(C2=C(Cl)C(=O)C(c3ccc(C)cc3)=C(Cl)C2=O)cc1`, the TGI [10] was > 100 µM, the TGI [2] was > 100 µM and the TGI [3] was > 100 µM. For the same molecule, the TGI [4] was > 100 µM, the TGI [5] was > 100 µM and the TGI [7] was > 100 µM. The TGI [8] was > 100 µM and the TGI [9] was > 100 µM.

`COC(=O)c1sc(=NC(=S)N2CCCCC2)sc1C(=O)OC` was tested, and the TGI [3] was > 100 µM, the TGI [4] was 34.2 µM and the TGI [6] was > 100 µM. The TGI [7] was > 100 µM and the TGI [9] was > 100 µM.

In the case of `OCC(O)C(O)C(O)C(O)c1nn[nH]n1` (configuration not stated), the TGI [2] was > 100 µM, the TGI [4] was > 100 µM and the TGI [9] was > 100 µM.

`CN(C)c1ccc(O[Si](Oc2ccc(N(C)C)cc2)(Oc2ccc(N(C)C)cc2)Oc2ccc(N(C)C)cc2)cc1` was tested, and the TGI [2] was > 100 µM, the TGI [3] was > 100 µM and the TGI [4] was > 100 µM. For the same molecule, the TGI [6] was > 100 µM, the TGI [7] was > 100 µM and the TGI [9] was > 100 µM.

Molecule `CCOc1ccc(Nc2nc(-c3c(C)nc4ncccn34)cs2)cc1` has a GI50 [1] of 0.0797 µM, a TGI [1] of 22.6 µM and a GI50 [10] of 0.412 µM. The TGI [10] was 14.9 µM, the GI50 [3] was 6.77 µM and the TGI [3] was 21.3 µM. The GI50 [4] was < 0.01 µM, the TGI [4] was 14.6 µM and the GI50 [6] was 0.0522 µM. It also gave a TGI [6] of 15.7 µM, a GI50 [7] of 0.0673 µM and a TGI [7] of 20.7 µM. It also gave a GI50 [8] of 0.0431 µM, a TGI [8] of 19.2 µM and a GI50 [9] of 0.0216 µM. For the same molecule, the TGI [9] was 0.0706 µM.

`O=C(/C=C(\[O-])c1ccccc1)CCCCCCC(=O)/C=C(\[O-])c1ccccc1.O=C(/C=C(\[O-])c1ccccc1)CCCCCCC(=O)/C=C(\[O-])c1ccccc1.O=C(/C=C(\[O-])c1ccccc1)CCCCCCC(=O)/C=C(\[O-])c1ccccc1.[Nd+3].[Nd+3]` was tested, and the GI50 [2] was > 50 µM, the TGI [2] was > 50 µM and the GI50 [3] was > 50 µM. For the same molecule, the TGI [3] was > 50 µM, the GI50 [4] was > 50 µM and the TGI [4] was > 50 µM. The GI50 [6] was > 50 µM, the TGI [6] was > 50 µM and the GI50 [7] was > 50 µM. The TGI [7] was > 50 µM, the GI50 [9] was 3.05 µM and the TGI [9] was > 50 µM.

With `CC(=O)OCC1OC(n2c(=S)n(-c3ccccc3)c(=O)c3cc(Br)cc(Br)c32)C(OC(C)=O)C(OC(C)=O)C1OC(C)=O` (configuration not stated) the TGI [2] was > 100 µM, the GI50 [3] was 46.6 µM and > 100 µM and the TGI [3] was > 100 µM. The GI50 [4] was 47.4 µM and > 100 µM, the TGI [4] was > 100 µM and the TGI [6] was > 100 µM. The TGI [7] was > 100 µM and the TGI [9] was > 100 µM.

In the case of `O=C(Nc1ccc(C(F)(F)F)cc1[N+](=O)[O-])c1cccnc1`, the TGI [1] was > 100 µM, the TGI [2] was > 100 µM and the TGI [3] was > 100 µM. For the same molecule, the TGI [4] was 7.29 µM, the TGI [5] was 2.5 µM and the TGI [6] was > 100 µM. For the same molecule, the TGI [7] was > 100 µM, the TGI [8] was > 100 µM and the TGI [9] was > 100 µM.

For `Nc1ncc(C2[C@H](CNC(=O)c3cc(Br)c[nH]3)C(CNC(=O)c3cc(Br)c[nH]3)[C@@H]2c2cnc(N)[nH]2)[nH]1` (some centres not stated), the GI50 [1] was 8.01 µM, the TGI [1] was > 50 µM and the GI50 [10] was > 50 µM. For the same molecule, the TGI [10] was > 50 µM, the GI50 [2] was 5.56 µM and the TGI [2] was 45.6 µM. For the same molecule, the GI50 [3] was > 50 µM, the TGI [3] was > 50 µM and the GI50 [4] was > 50 µM. For the same molecule, the TGI [4] was > 50 µM, the GI50 [5] was > 50 µM and the TGI [5] was > 50 µM. The GI50 [6] was > 50 µM, the TGI [6] was > 50 µM and the GI50 [8] was 0.329 µM. The TGI [8] was > 50 µM.

With `[Cl-].[Gd+3].[O-]/N=C(\c1ccccc1)c1ccccn1.[O-]/N=C(\c1ccccc1)c1ccccn1.[O-]/N=C(\c1ccccc1)c1ccccn1` the GI50 [2] was 42.7 µM, the TGI [2] was > 100 µM and the GI50 [3] was 86.5 µM. The TGI [3] was > 100 µM, the GI50 [4] was 21.3 µM and the TGI [4] was 79.5 µM. The GI50 [6] was 30.7 µM, the TGI [6] was > 100 µM and the GI50 [7] was 61.6 µM. The TGI [7] was > 100 µM, the GI50 [9] was 11.7 µM and the TGI [9] was > 100 µM.

Molecule `COc1cc2cc3c(c(O)c2c(O)c1-c1c(OC)cc2cc4c(c(O)c2c1O)C(=O)O[C@H](C)C4)C(=O)O[C@H](C)C3` has a GI50 [1] of 16.2 µM, a TGI [1] of 42 µM and a GI50 [2] of 16.2 µM. It also gave a TGI [2] of 63.9 µM, a GI50 [3] of 22.9 µM and a TGI [3] of 48.8 µM. For the same molecule, the GI50 [4] was 21.2 µM, the TGI [4] was 48.4 µM and the GI50 [5] was 17.8 µM. The TGI [5] was 33.8 µM, the GI50 [6] was 33 µM and the TGI [6] was > 100 µM. The GI50 [7] was 33 µM, the TGI [7] was 99.1 µM and the GI50 [8] was 15.9 µM. The TGI [8] was 31.2 µM, the GI50 [9] was 95.9 µM and the TGI [9] was > 100 µM.

For `COc1cc(CCc2ccc(OC(C)=O)cc2)cc(OC)c1OC`, the TGI [2] was > 100 µM, the TGI [3] was > 100 µM and the TGI [4] was > 100 µM. The TGI [7] was > 100 µM and the TGI [9] was > 100 µM.

For `NC(N)=N/N=C/c1c(-c2ccc(Cl)c([N+](=O)[O-])c2)nc2sc3ccccc3n12`, the GI50 [1] was 0.697 µM, the TGI [1] was 1.47 µM and the GI50 [2] was 2.03 µM. For the same molecule, the TGI [2] was 7.16 µM, the GI50 [3] was 8.38 µM and the TGI [3] was 18 µM. For the same molecule, the GI50 [5] was 1.1 µM, the TGI [5] was 2.4 µM and the GI50 [6] was 0.296 µM. For the same molecule, the TGI [6] was 0.95 µM, the GI50 [8] was 2.29 µM and the TGI [8] was 14.8 µM.

`Nc1nc(=S)[nH]c(C(=O)Nc2nccs2)c1-c1ccccc1` was tested, and the TGI [2] was > 100 µM, the TGI [3] was > 100 µM and the TGI [4] was > 100 µM. For the same molecule, the TGI [6] was > 100 µM, the TGI [7] was > 100 µM and the TGI [9] was > 100 µM.

In the case of `COc1ccc(-c2cc(-c3ccco3)c(C#N)c(=O)[nH]2)cc1`, the TGI [2] was > 100 µM, the TGI [3] was > 100 µM and the TGI [4] was 53.8 µM. The TGI [6] was > 100 µM, the TGI [7] was > 100 µM and the TGI [9] was > 100 µM.
